Results published in patent publication US9315451B2, “Tetracycline compounds” (priority 2009, dated 2016).
Where two headings read alike, the source gives them in different places.

Test system: S. aureus Smith (ATCC 13709)
Experiment: Mouse systemic infection (septicemia) model, S. aureus Smith
Format: in vivo
Conditions: Staphylococcus aureus; for responders at 3 mg/kg: ATCC13709, iv, read-out: SA Smith septicemia survival IV (3 mg/kg); for responders at 3 mg/kg / responders at 30 mg/kg: 48 h; for responders at 30 mg/kg: ATCC13709, po, read-out: SA Smith septicemia survival PO (30 mg/kg); for ED50: ATCC13709, dose that prevents 50% of the mice from death, 48 hours
Experimental: Mouse Systemic Infection Protocol-S. aureus Smith Septicemia
Compounds were screened for antibacterial activity in vivo in a mouse systemic infection (septicemia) model. In the model, CD-1 female mice (18-22 grams) were injected IP with a S. aureus Smith (ATCC 13709) inoculum that results in 0% survival within 24 to 48 hours. The bacterial dose required to achieve this effect was previously established through virulence studies. At one hour post infection, mice received either […] IV or […] PO. Typically, six mice were treated per dose group. Animal survival was assessed and recorded for 48 hours. Percent survival at 48 hours was recorded and PD50 (mg/kg) was determined for each compound tested.

[1] = CD-1 female mice, IV 3 mg/kg one hour post infection, survival at 48 hours
[2] = CD-1 female mice, PO 30 mg/kg one hour post infection, survival at 48 hours
[3] = CD-1 female mice, PO, read-out: SA Smith septicemia PD50 PO
[4] = CD-1 female mice, IV, read-out: SA Smith septicemia PD50 IV

SMILES	responders at 3 mg/kg [1] [%]	responders at 30 mg/kg [2] [%]	other results
CN(C)c1c(CN(C)C2(C)CCC2)cc(O)c2c1C[C@H]1C[C@H]3[C@H](N(C)C)C(O)=C(C(N)=O)C(=O)[C@@]3(O)C(O)=C1C2=O [Compound S16-10-107]	100	100	–
CN(C)[C@@H]1C(O)=C(C(N)=O)C(=O)[C@@]2(O)C(O)=C3C(=O)c4c(O)cc(CN5CCCCCC5)c(C(F)(F)F)c4C[C@H]3C[C@@H]12 [Compound S25-11-56]	67	33	–
CN(C)[C@@H]1C(O)=C(C(N)=O)C(=O)[C@@]2(O)C(O)=C3C(=O)c4c(O)cc(CN(CCF)CC5CC5)c(F)c4C[C@H]3C[C@@H]12 [Compound S1-14-31]	–	–	responders at 3 mg/kg: 0%; responders at 30 mg/kg: 0%
CCN(Cc1cc(O)c2c(c1F)C[C@H]1C[C@H]3[C@H](N(C)C)C(O)=C(C(N)=O)C(=O)[C@@]3(O)C(O)=C1C2=O)CC1CCCC1 [Compound S2-4-62]	17	25	–
CC(C)CN(C)C(C)(C)c1cc(O)c2c(c1Cl)C[C@H]1C[C@H]3[C@H](N(C)C)C(O)=C(C(N)=O)C(=O)[C@@]3(O)C(O)=C1C2=O [Compound S27-9-7]	17	33	–
CCN(Cc1cc(O)c2c(c1F)C[C@H]1C[C@H]3[C@H](N(C)C)C(O)=C(C(N)=O)C(=O)[C@@]3(O)C(O)=C1C2=O)C(C)(C)CC [Compound S2-4-33]	67	33	–
CC(C)[C@@H](C)NCc1cc(O)c2c(c1Cl)C[C@H]1C[C@H]3[C@H](N(C)C)C(O)=C(C(N)=O)C(=O)[C@@]3(O)C(O)=C1C2=O [Compound S15-13-8]	67	50	–
CN(C)[C@@H]1C(O)=C(C(N)=O)C(=O)[C@@]2(O)C(O)=C3C(=O)c4c(O)cc(C(C)(C)N(C)CC5CCCC5)c(F)c4C[C@H]3C[C@@H]12 [Compound S27-9-5]	83	67	–
CCN(Cc1cc(O)c2c(c1F)C[C@H]1C[C@H]3[C@H](N(C)C)C(O)=C(C(N)=O)C(=O)[C@@]3(O)C(O)=C1C2=O)C1(C)CC1 [Compound S1-14-36]	33	0	–
CN(C)[C@@H]1C(O)=C(C(N)=O)C(=O)[C@@]2(O)C(O)=C3C(=O)c4c(O)cc(CN[C@H]5CC6CCC5C6)c(C(F)(F)F)c4C[C@H]3C[C@@H]12 (stereo partly shown) [Compound S25-11-12]	0	20	–
CN(C)[C@@H]1C(O)=C(C(N)=O)C(=O)[C@@]2(O)C(O)=C3C(=O)c4c(O)cc(CN5CCCCC5)c(C(F)(F)F)c4C[C@H]3C[C@@H]12 [Compound S25-11-68]	50	83	–
CN(C)[C@@H]1C(O)=C(C(N)=O)C(=O)[C@@]2(O)C(O)=C3C(=O)c4c(O)cc(CN5CC[C@H](F)C5)c(Cl)c4C[C@H]3C[C@@H]12 [Compound S15-13-226]	100	83	–
CN(C)[C@@H]1C(O)=C(C(N)=O)C(=O)[C@@]2(O)C(O)=C3C(=O)c4c(O)cc(CN(C)C(C)(C)CC(C)(C)C)c(F)c4C[C@H]3C[C@@H]12 [Compound S2-4-30]	33	–	ED50 [3]: > 60 mg/kg
CN(C)[C@@H]1C(O)=C(C(N)=O)C(=O)[C@@]2(O)C(O)=C3C(=O)c4c(O)cc(CN5CC6CCCCC6C5)c(Cl)c4C[C@H]3C[C@@H]12 (stereo partly shown) [Compound S15-13-117]	33	20	–
C[C@@H]1CC[C@H](C)N1Cc1cc(O)c2c(c1Cl)C[C@H]1C[C@H]3[C@H](N(C)C)C(O)=C(C(N)=O)C(=O)[C@@]3(O)C(O)=C1C2=O [Compound S15-13-203]	100	100	–
CN(C)[C@@H]1C(O)=C(C(N)=O)C(=O)[C@@]2(O)C(O)=C3C(=O)c4c(O)cc(CNC5C6CC7CC(C6)CC5C7)c(F)c4C[C@H]3C[C@@H]12 (stereo partly shown) [Compound S1-14-28]	33	17	–
CN(C)[C@@H]1C(O)=C(C(N)=O)C(=O)[C@@]2(O)C(O)=C3C(=O)c4c(O)cc(CN(C)C5(C6CC6)CC5)c(F)c4C[C@H]3C[C@@H]12 [Compound S2-4-60]	17	33	–
CN(C)[C@@H]1C(O)=C(C(N)=O)C(=O)[C@@]2(O)C(O)=C3C(=O)c4c(O)cc(CNCc5ccccc5)c(F)c4C[C@H]3C[C@@H]12 [Compound S1-14-105]	67	0	–

SMILES	responders at 3 mg/kg [1] [%]	responders at 30 mg/kg [2] [%]	other results
CC1CCN(Cc2cc(O)c3c(c2Cl)C[C@H]2C[C@H]4[C@H](N(C)C)C(O)=C(C(N)=O)C(=O)[C@@]4(O)C(O)=C2C3=O)CC1 [Compound S15-13-182]	33	67	–
CN(C)[C@@H]1C(O)=C(C(N)=O)C(=O)[C@@]2(O)C(O)=C3C(=O)c4c(O)cc(CNCC(C)(C)C)c(Cl)c4C[C@H]3C[C@@H]12 [Compound S15-13-5]	50	17	–
CN(C)c1c(CNC2C3CC4CC(C3)CC2C4)cc(O)c2c1C[C@H]1C[C@H]3[C@H](N(C)C)C(O)=C(C(N)=O)C(=O)[C@@]3(O)C(O)=C1C2=O (stereo partly shown) [Compound S16-10-18]	17	0	–
CN(C)[C@@H]1C(O)=C(C(N)=O)C(=O)[C@@]2(O)C(O)=C3C(=O)c4c(O)cc(CNC5Cc6ccccc6C5)c(F)c4C[C@H]3C[C@@H]12 [Compound S1-14-90]	33	0	–
C[C@H]1CCCN1Cc1cc(O)c2c(c1C(F)(F)F)C[C@H]1C[C@H]3[C@H](N(C)C)C(O)=C(C(N)=O)C(=O)[C@@]3(O)C(O)=C1C2=O [Compound S25-11-48]	100	100	–
CCN(Cc1cc(O)c2c(c1F)C[C@H]1C[C@H]3[C@H](N(C)C)C(O)=C(C(N)=O)C(=O)[C@@]3(O)C(O)=C1C2=O)CC(C)C [Compound S2-4-50]	–	–	ED50 [4]: 1 mg/kg; ED50 [3]: 10.1 mg/kg
CN(C)C(=O)C(C)(C)N(C)Cc1cc(O)c2c(c1Cl)C[C@H]1C[C@H]3[C@H](N(C)C)C(O)=C(C(N)=O)C(=O)[C@@]3(O)C(O)=C1C2=O [Compound S15-13-227]	17	0	–
CN(C)[C@@H]1C(O)=C(C(N)=O)C(=O)[C@@]2(O)C(O)=C3C(=O)c4c(O)cc(CNCC56CC7CC(CC(C7)C5)C6)c(F)c4C[C@H]3C[C@@H]12 [Compound S1-14-25]	33	17	–
C[C@@H]1CCC[C@H](C)N1Cc1cc(O)c2c(c1F)C[C@H]1C[C@H]3[C@H](N(C)C)C(O)=C(C(N)=O)C(=O)[C@@]3(O)C(O)=C1C2=O [Compound S2-4-66]	100	100	ED50 [3]: 8.5 mg/kg
CCN(Cc1cc(O)c2c(c1F)C[C@H]1C[C@H]3[C@H](N(C)C)C(O)=C(C(N)=O)C(=O)[C@@]3(O)C(O)=C1C2=O)C1(C)CCCC1 [Compound S1-14-73]	50	75	–
CN(Cc1ccccc1)Cc1cc(O)c2c(c1F)C[C@H]1C[C@H]3[C@H](N(C)C)C(O)=C(C(N)=O)C(=O)[C@@]3(O)C(O)=C1C2=O [Compound S1-14-46]	0	0	–
CN(C)[C@@H]1C(O)=C(C(N)=O)C(=O)[C@@]2(O)C(O)=C3C(=O)c4c(O)cc(CN(CC5CC5)C5CC5)c(F)c4C[C@H]3C[C@@H]12 [Compound S2-4-41]	0	0	–
COc1c(CN2CCCC2(C)C)cc(O)c2c1C[C@H]1C[C@H]3[C@H](N(C)C)C(O)=C(C(N)=O)C(=O)[C@@]3(O)C(O)=C1C2=O [Compound S24-9-10]	100	100	–
CN(C)[C@@H]1C(O)=C(C(N)=O)C(=O)[C@@]2(O)C(O)=C3C(=O)c4c(O)cc(CNC(C)(C)CC(C)(C)C)c(F)c4C[C@H]3C[C@@H]12 [Compound S2-4-7]	67	17	–
CN(C)[C@@H]1C(O)=C(C(N)=O)C(=O)[C@@]2(O)C(O)=C3C(=O)c4c(cc(F)c(CNCC(C)(C)C)c4O)C[C@H]3C[C@@H]12 [Compound S19-8-1]	100	100	ED50 [4]: 0.36 mg/kg; ED50 [3]: 12.2 mg/kg
CN(C)[C@@H]1C(O)=C(C(N)=O)C(=O)[C@@]2(O)C(O)=C3C(=O)c4c(O)cc(CN5CCCCC5(C)C)c(F)c4C[C@H]3C[C@@H]12 [Compound S6-4-1]	100	100	–
CCC1(CNCc2cc(O)c3c(c2F)C[C@H]2C[C@H]4[C@H](N(C)C)C(O)=C(C(N)=O)C(=O)[C@@]4(O)C(O)=C2C3=O)CCC1 [Compound S1-14-91]	17	60	–
